Source: patent US20090075937A1, “LHRH ANTAGONISTS FOR THE TREATMENT OF LOWER URINARY TRACT SYMPTOMS” (AETERNA ZENTARIS GmbH, priority 2007, published 2009)
Non-standard residues stand in square brackets, D forms with d. Residues, ends and D or L forms follow the SMILES beside them. dPhe(4-Cl) = N[C@H](Cc1ccc(Cl)cc1)C(=O)O; d2Nal = N[C@H](Cc1ccc2ccccc2c1)C(=O)O; dCit = NC(=O)NCCC[C@@H](N)C(=O)O; d3Pal = N[C@H](Cc1cccnc1)C(=O)O

Columns and labels:
study subjects [1] = assay: Nocturia: how often the study subjects got up during the night in order to urinate; assay type: in vivo, human
Description: (§1) The results shown are percentage variations from baseline at the beginning of the study (week 0).
The results shown are mean values, how often the study subjects had to get up.

study subjects [2] = assay: Frequency of emptying: how often the study subjects had to urinate a second time within a 2 hour test period; assay type: in vivo, human
Description: as §1
The results shown are mean values, how often the study subjects had to urinate a second time.

study subjects [3] = assay: IPSS irritative subscore (sum of nocturia, frequency of emptying and urgency to urinate); assay type: in vivo, human; settings: for IPSS irritative subscore (nocturia, frequency of emptying, urgency to urinate): percentage variation from baseline
Description: as §1

[4] = tested on: testosterone blood levels; assay: Median testosterone blood levels / chemical (hormonal) castration; settings: for Testosterone [ng/mL] (median): blood level
Description: Preferably, chemical (hormonal) castration is a testosterone castration and refers to a testosterone blood level of equal or below 1.2 ng/mL, preferably 0.5 ng/mL.
Study subjects were treated with Cetrorelix pamoate with the following doses according to the following administration schemes: • 60 mg Cetrorelix pamaote administered at week 0 and 30 mg Cetrorelix pamaote administered at week 2 (treatment period) followed by up to 5 months of no treatment (treatment-free period) • 60 mg Cetrorelix pamaote administered at week 0 and 60 mg Cetrorelix pamaote administered at week 2 (treatment period) followed by up to 5 months of no treatment (treatment-free period)
Study subjects were treated with Cetrorelix acetate with the following doses according to the following administration schemes: • 5 mg Cetrorelix acetate administered at week 0, 1, 2 and 3 (total monthly dose of 20 mg) (treatment period) followed by up to 4 months of no treatment (treatment-free period) • 10 mg Cetrorelix acetate administered at week 0 and 10 mg Cetrorelix acetate administered at week 2 (treatment period) followed by up to 4 months of no treatment (treatment-free period) • 10 mg Cetrorelix acetate administered at week 0, 1, 2 and 3 (total monthly dose of 40 mg) (treatment period) followed by up to 4 months of no treatment (treatment-free period)
Study subjects were treated with Ozarelix with the following doses according to the following administration schemes: • 15 mg Ozarelix administered at week 0 and 15 mg Ozarelix administered at week 2 (treatment period) followed by up to 4 months of no treatment (treatment-free period)

[5] = 2 × 10: 10 mg at week 0 and week 2, Week 0
[6] = 2 × 10: 10 mg at week 0 and week 2, Week 4
[7] = 2 × 10: 10 mg at week 0 and week 2, Week 8
[8] = 2 × 10: 10 mg at week 0 and week 2, Week 12
[9] = 2 × 10: 10 mg at week 0 and week 2, Week 16
[10] = 2 × 10: 10 mg at week 0 and week 2, Week 20
[11] = 4 × 5: 5 mg at week 0, 1, 2 and 3, Week 0
[12] = 4 × 5: 5 mg at week 0, 1, 2 and 3, Week 4
[13] = 4 × 5: 5 mg at week 0, 1, 2 and 3, Week 8
[14] = 4 × 5: 5 mg at week 0, 1, 2 and 3, Week 12
[15] = 4 × 5: 5 mg at week 0, 1, 2 and 3, Week 16
[16] = 4 × 5: 5 mg at week 0, 1, 2 and 3, Week 20
[17] = 4 × 10: 10 mg at week 0, 1, 2 and 3, Week 0
[18] = 4 × 10: 10 mg at week 0, 1, 2 and 3, Week 4
[19] = 4 × 10: 10 mg at week 0, 1, 2 and 3, Week 8
[20] = 4 × 10: 10 mg at week 0, 1, 2 and 3, Week 12
[21] = 4 × 10: 10 mg at week 0, 1, 2 and 3, Week 16
[22] = 4 × 10: 10 mg at week 0, 1, 2 and 3, Week 20
[23] = 5+5+5+5 mg, 10+10 mg and 10+10+10+10 mg schemes, largest difference, n-times mean

## CC(=O)N[C@H](Cc1ccc2ccccc2c1)C(=O)N[C@H](Cc1ccc(Cl)cc1)C(=O)N[C@H](Cc1cccnc1)C(=O)N[C@@H](CO)C(=O)N[C@@H](Cc1ccc(O)cc1)C(=O)N[C@H](CCCNC(N)=O)C(=O)N[C@@H](CC(C)C)C(=O)N[C@@H](CCCNC(=N)N)C(=O)N1CCC[C@H]1C(=O)N[C@H](C)C(N)=O [Cetrorelix acetate] (Ac-[d2Nal][dPhe(4-Cl)][d3Pal]SY[dCit]LRP[dA]-NH2)
Study subjects [1]; [5]
  Nocturia (n-times, mean): 2.69 n-times
Study subjects [1]; [6]
  Nocturia (n-times, mean): 2.00 n-times
Study subjects [1]; [7]
  Nocturia (n-times, mean): 2.06 n-times
Study subjects [1]; [8]
  Nocturia (n-times, mean): 1.97 n-times
Study subjects [1]; [9]
  Nocturia (n-times, mean): 1.97 n-times
Study subjects [1]; [10]
  Nocturia (n-times, mean): 2.16 n-times
Study subjects [1]; [11]
  Nocturia (n-times, mean): 2.57 n-times
Study subjects [1]; [12]
  Nocturia (n-times, mean): 2.09 n-times
Study subjects [1]; [13]
  Nocturia (n-times, mean): 1.94 n-times
Study subjects [1]; [14]
  Nocturia (n-times, mean): 1.85 n-times
Study subjects [1]; [15]
  Nocturia (n-times, mean): 1.79 n-times
Study subjects [1]; [16]
  Nocturia (n-times, mean): 1.85 n-times
Study subjects [1]; [17]
  Nocturia (n-times, mean): 2.63 n-times
Study subjects [1]; [18]
  Nocturia (n-times, mean): 1.79 n-times
Study subjects [1]; [19]
  Nocturia (n-times, mean): 1.78 n-times
Study subjects [1]; [20]
  Nocturia (n-times, mean): 1.75 n-times
Study subjects [1]; [21]
  Nocturia (n-times, mean): 1.87 n-times
Study subjects [1]; [22]
  Nocturia (n-times, mean): 2.16 n-times
Study subjects [1]; [23]
  decrease in nocturia frequency compared to placebo: up to 0.71
Study subjects [2]; [5]
  Frequency of emptying (n-times, mean): 2.29 n-times
Study subjects [2]; [6]
  Frequency of emptying (n-times, mean): 1.86 n-times
Study subjects [2]; [7]
  Frequency of emptying (n-times, mean): 1.58 n-times
Study subjects [2]; [8]
  Frequency of emptying (n-times, mean): 1.55 n-times
Study subjects [2]; [9]
  Frequency of emptying (n-times, mean): 1.45 n-times
Study subjects [2]; [10]
  Frequency of emptying (n-times, mean): 1.66 n-times
Study subjects [2]; [11]
  Frequency of emptying (n-times, mean): 2.49 n-times
Study subjects [2]; [12]
  Frequency of emptying (n-times, mean): 2.23 n-times
Study subjects [2]; [13]
  Frequency of emptying (n-times, mean): 2.00 n-times
Study subjects [2]; [14]
  Frequency of emptying (n-times, mean): 1.73 n-times
Study subjects [2]; [15]
  Frequency of emptying (n-times, mean): 1.52 n-times
Study subjects [2]; [16]
  Frequency of emptying (n-times, mean): 1.79 n-times
Study subjects [2]; [17]
  Frequency of emptying (n-times, mean): 2.86 n-times
Study subjects [2]; [18]
  Frequency of emptying (n-times, mean): 1.62 n-times
Study subjects [2]; [19]
  Frequency of emptying (n-times, mean): 1.66 n-times
Study subjects [2]; [20]
  Frequency of emptying (n-times, mean): 1.81 n-times
Study subjects [2]; [21]
  Frequency of emptying (n-times, mean): 1.65 n-times
Study subjects [2]; [22]
  Frequency of emptying (n-times, mean): 1.78 n-times
Study subjects [2]; [23]
  decrease in frequency of emptying compared to placebo: up to 1.35
Study subjects [3]; 5+5+5+5 mg, 10+10 mg and 10+10+10+10 mg schemes, largest difference
  further decrease in IPSS irritative subscore compared to placebo: up to 43%
Study subjects [3]; [5]
  IPSS irritative subscore (nocturia, frequency of emptying, urgency to urinate): 0%
Study subjects [3]; [6]
  IPSS irritative subscore (nocturia, frequency of emptying, urgency to urinate): −25%
Study subjects [3]; [7]
  IPSS irritative subscore (nocturia, frequency of emptying, urgency to urinate): −33.3%
Study subjects [3]; [8]
  IPSS irritative subscore (nocturia, frequency of emptying, urgency to urinate): −33.3%
Study subjects [3]; [9]
  IPSS irritative subscore (nocturia, frequency of emptying, urgency to urinate): −42.9%
Study subjects [3]; [10]
  IPSS irritative subscore (nocturia, frequency of emptying, urgency to urinate): −29.2%
Study subjects [3]; [11]
  IPSS irritative subscore (nocturia, frequency of emptying, urgency to urinate): 0%
Study subjects [3]; [12]
  IPSS irritative subscore (nocturia, frequency of emptying, urgency to urinate): −16.7%
Study subjects [3]; [13]
  IPSS irritative subscore (nocturia, frequency of emptying, urgency to urinate): −25%
Study subjects [3]; [14]
  IPSS irritative subscore (nocturia, frequency of emptying, urgency to urinate): −28.6%
Study subjects [3]; [15]
  IPSS irritative subscore (nocturia, frequency of emptying, urgency to urinate): −30.8%
Study subjects [3]; [16]
  IPSS irritative subscore (nocturia, frequency of emptying, urgency to urinate): −29.7%
Study subjects [3]; [17]
  IPSS irritative subscore (nocturia, frequency of emptying, urgency to urinate): 0%
Study subjects [3]; [18]
  IPSS irritative subscore (nocturia, frequency of emptying, urgency to urinate): −29.3%
Study subjects [3]; [19]
  IPSS irritative subscore (nocturia, frequency of emptying, urgency to urinate): −31%
Study subjects [3]; [20]
  IPSS irritative subscore (nocturia, frequency of emptying, urgency to urinate): −25%
Study subjects [3]; [21]
  IPSS irritative subscore (nocturia, frequency of emptying, urgency to urinate): −28.6%
Study subjects [3]; [22]
  IPSS irritative subscore (nocturia, frequency of emptying, urgency to urinate): −25%
[4]; 5+5+5+5 mg, 10+10 mg and 10+10+10+10 mg schemes, conclusion from median testosterone blood levels
  chemical (hormonal) castration: successfully prevented
[4]; [5]
  Testosterone [ng/mL] (median): 3.27 ng/mL
[4]; [6]
  Testosterone [ng/mL] (median): 4.41 ng/mL
[4]; [7]
  Testosterone [ng/mL] (median): 3.73 ng/mL
[4]; [8]
  Testosterone [ng/mL] (median): 4.45 ng/mL
[4]; [9]
  Testosterone [ng/mL] (median): 4.16 ng/mL
[4]; [10]
  Testosterone [ng/mL] (median): 4.12 ng/mL
[4]; [11]
  Testosterone [ng/mL] (median): 3.42 ng/mL
[4]; [12]
  Testosterone [ng/mL] (median): 2.95 ng/mL
[4]; [13]
  Testosterone [ng/mL] (median): 3.77 ng/mL
[4]; [14]
  Testosterone [ng/mL] (median): 4.11 ng/mL
[4]; [15]
  Testosterone [ng/mL] (median): 3.91 ng/mL
[4]; [16]
  Testosterone [ng/mL] (median): 3.49 ng/mL
[4]; [17]
  Testosterone [ng/mL] (median): 3.41 ng/mL
[4]; [18]
  Testosterone [ng/mL] (median): 2.17 ng/mL
[4]; [19]
  Testosterone [ng/mL] (median): 3.82 ng/mL
[4]; [20]
  Testosterone [ng/mL] (median): 4.32 ng/mL
[4]; [21]
  Testosterone [ng/mL] (median): 4.32 ng/mL
[4]; [22]
  Testosterone [ng/mL] (median): 4.06 ng/mL
